Measured values published in patent US12441726B2, “Compounds and uses thereof” (Foghorn Therapeutics Inc., priority 2020, dated 2025).

Experiments:
BRG-1 = BRG-1 (Homo sapiens, UniProt P51532); test: ATPase catalytic activity assay (ADP-Glo), BRG-1; settings: for Emax: 1 h, read-out: BRG1 Max % Inhibition, ADP-Glo, 30 nM BRG-1, 400 μM ATP
Protocol: The ATPase catalytic activity of BRM or BRG-1 was measured by an in vitro biochemical assay using ADP-Glo™ (Promega, V9102). The ADP-Glo™ kinase assay is performed in two steps once the reaction is complete. The first step is to deplete any unconsumed ATP in the reaction. The second step is to convert the reaction product ADP to ATP, which will be utilized by the luciferase to generate luminesce and be detected by a luminescence reader, such as Envision.
Then following addition of 5 μL of ADP-Glo™ Reagent provided in the kit, the reaction incubates at room temperature for 40 minutes. Then 10 μL of Kinase Detection Reagent provided in the kit is added to convert ADP to ATP, and the reaction incubates at room temperature for 60 minutes. Finally, luminescence measurement is collected with a plate-reading luminometer, such as Envision.

BRM = BRM (Homo sapiens, UniProt P51531); test: ATPase catalytic activity assay (ADP-Glo), BRM; settings: 30 nM BRM, 400 μM ATP; for IC50: BRM ATPase: IC50 (uM)
Sequence of BRM (P51531 whole entry): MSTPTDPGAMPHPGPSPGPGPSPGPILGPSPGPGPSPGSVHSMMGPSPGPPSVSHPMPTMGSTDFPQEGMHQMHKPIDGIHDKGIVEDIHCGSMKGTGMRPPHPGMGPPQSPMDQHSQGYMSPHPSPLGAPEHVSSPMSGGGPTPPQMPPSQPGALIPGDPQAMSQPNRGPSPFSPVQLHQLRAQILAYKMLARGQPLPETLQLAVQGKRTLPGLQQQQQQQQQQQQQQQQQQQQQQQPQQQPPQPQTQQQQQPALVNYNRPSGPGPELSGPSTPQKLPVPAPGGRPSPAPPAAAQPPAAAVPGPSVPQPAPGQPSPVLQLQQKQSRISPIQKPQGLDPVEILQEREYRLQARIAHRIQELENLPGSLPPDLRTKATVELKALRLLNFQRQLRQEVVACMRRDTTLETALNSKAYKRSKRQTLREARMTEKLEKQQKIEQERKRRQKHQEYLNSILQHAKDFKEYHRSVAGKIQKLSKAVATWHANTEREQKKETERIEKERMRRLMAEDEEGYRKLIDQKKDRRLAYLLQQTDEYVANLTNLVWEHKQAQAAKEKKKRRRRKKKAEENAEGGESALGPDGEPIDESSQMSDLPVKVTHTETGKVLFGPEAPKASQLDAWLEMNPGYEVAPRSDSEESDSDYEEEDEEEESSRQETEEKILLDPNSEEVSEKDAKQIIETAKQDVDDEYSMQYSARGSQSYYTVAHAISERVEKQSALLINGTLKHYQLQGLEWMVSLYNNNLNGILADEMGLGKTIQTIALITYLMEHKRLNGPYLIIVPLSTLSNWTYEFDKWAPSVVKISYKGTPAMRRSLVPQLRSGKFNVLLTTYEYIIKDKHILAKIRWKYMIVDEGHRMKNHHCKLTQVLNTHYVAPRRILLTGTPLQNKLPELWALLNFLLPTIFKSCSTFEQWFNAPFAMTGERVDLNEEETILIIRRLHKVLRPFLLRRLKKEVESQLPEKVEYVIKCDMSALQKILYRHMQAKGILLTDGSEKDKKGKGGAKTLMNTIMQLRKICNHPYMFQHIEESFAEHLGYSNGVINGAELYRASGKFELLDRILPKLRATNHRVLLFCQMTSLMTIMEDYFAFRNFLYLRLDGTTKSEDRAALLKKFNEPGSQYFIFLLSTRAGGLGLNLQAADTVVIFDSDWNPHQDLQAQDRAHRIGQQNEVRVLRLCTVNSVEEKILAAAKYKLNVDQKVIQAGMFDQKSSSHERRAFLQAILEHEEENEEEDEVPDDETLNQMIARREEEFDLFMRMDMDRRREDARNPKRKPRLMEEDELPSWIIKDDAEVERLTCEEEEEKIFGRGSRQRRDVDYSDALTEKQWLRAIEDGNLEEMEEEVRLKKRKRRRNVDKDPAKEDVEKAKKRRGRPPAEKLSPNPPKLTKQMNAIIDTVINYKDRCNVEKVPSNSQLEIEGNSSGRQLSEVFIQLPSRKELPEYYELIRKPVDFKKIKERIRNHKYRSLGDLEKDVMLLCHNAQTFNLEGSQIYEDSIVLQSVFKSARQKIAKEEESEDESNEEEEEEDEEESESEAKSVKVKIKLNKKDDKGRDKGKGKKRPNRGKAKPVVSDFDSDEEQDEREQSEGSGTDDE

Sequence of BRG-1 (P51532 whole entry): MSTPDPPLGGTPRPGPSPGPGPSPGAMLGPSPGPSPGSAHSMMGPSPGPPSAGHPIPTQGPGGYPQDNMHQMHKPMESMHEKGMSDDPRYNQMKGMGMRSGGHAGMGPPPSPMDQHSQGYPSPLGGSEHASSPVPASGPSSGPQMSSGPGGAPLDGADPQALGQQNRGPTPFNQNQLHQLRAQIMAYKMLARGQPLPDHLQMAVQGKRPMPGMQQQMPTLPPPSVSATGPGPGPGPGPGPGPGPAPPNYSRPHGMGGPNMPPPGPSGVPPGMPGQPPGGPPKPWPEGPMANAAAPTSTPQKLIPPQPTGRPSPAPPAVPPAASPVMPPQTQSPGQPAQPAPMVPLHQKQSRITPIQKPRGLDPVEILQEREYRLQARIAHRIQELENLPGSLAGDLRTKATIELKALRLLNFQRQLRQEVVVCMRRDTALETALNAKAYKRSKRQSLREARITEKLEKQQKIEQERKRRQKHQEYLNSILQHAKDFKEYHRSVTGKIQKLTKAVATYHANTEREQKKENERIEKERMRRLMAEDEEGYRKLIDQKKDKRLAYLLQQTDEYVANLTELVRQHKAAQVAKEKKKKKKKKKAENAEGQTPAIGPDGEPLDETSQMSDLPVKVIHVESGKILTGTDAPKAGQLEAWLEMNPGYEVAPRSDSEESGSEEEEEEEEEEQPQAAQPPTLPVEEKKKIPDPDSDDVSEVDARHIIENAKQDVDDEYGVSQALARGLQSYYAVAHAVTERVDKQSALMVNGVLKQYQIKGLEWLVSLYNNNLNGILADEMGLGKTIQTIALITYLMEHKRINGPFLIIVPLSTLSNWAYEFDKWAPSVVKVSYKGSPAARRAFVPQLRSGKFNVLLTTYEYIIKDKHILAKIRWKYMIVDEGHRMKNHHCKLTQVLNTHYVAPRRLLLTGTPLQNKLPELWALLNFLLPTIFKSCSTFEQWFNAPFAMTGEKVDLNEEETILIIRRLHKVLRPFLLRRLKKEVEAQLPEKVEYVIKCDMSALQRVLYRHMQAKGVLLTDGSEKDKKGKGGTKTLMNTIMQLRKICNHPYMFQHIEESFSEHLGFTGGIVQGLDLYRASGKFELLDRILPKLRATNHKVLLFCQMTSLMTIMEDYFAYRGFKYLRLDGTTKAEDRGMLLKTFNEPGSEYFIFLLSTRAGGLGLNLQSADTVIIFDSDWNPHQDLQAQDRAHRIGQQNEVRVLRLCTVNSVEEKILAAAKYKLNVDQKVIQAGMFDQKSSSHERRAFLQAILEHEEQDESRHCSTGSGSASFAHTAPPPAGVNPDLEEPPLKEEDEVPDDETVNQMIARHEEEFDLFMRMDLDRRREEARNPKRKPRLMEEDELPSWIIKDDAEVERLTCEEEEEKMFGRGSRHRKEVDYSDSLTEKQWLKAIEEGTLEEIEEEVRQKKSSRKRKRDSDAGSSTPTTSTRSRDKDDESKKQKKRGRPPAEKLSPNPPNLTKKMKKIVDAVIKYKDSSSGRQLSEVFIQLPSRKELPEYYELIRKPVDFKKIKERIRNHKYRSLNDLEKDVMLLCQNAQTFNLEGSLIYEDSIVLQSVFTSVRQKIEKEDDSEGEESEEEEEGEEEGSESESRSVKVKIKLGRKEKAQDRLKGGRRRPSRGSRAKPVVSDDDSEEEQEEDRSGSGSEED

| IC50 (BRG-1) [nM] | Emax (BRG-1) [%] | BRM Max % Inhibition (BRM) [%] | IC50 (BRM) [µM] | Structure (SMILES) |
| --- | --- | --- | --- | --- |
| 500 to 1000 | 72 | 96 | 0.1 to 0.5 | COC1CN(C(=O)c2cccc(-c3ccc4cnc(CNC(=O)c5ccc6c(c5)[C@](C)(C#N)COC6)cc4n3)c2)C1 [Compound 445] |
| 100 to 500 | 78 | 93 | 0.1 to 0.5 | C[C@@]1(C#N)COCc2ccc(C(=O)NCc3cc4nc(-c5cncc(N6CC(F)(F)C6)n5)ccc4cn3)cc21 [Compound 404] |
| > 1000 | 73 | 96 | 0.1 to 0.5 | C[C@@H](NC(=O)c1ccc2c(c1)[C@](C)(C#N)COC2)c1cc2nc(-c3ccccc3)ccc2cn1 [Compound 88] |
| 100 to 500 | 98 | 100 | < 0.1 | C[C@@]1(C#N)COCc2c(F)cc(C(=O)NCc3cc4nc(-c5cncc(N6CCC6)n5)ccc4cn3)cc21 [Compound 399] |
| 500 to 1000 | 51 | 89 | 0.1 to 0.5 | CC1c2cc(CNC(=O)c3ccc4c(c3)[C@](C)(C#N)COC4)ncc2CCN1c1cncc(C2CC2)n1 (stereo partly shown) [Compound 209] |
| > 1000 | 0 | 8 | > 1 | C[C@@]1(C#N)CCNc2ccc(C(=O)NCc3cc4nc(-c5ccccc5)sc4cn3)cc21 [Compound 120] |
| > 1000 | 59 | 95 | 0.1 to 0.5 | C[C@@]1(C#N)COCc2ccc(C(=O)NCc3cc4nc(N5CCCC5)ccc4cn3)cc21 [Compound 514] |
| < 100 | 98 | 104 | < 0.1 | C[C@@]1(C#N)COCc2c(F)cc(C(=O)NCc3cc4cc(-c5cncc(N6CCC6)n5)ccc4cn3)cc21 [Compound 270] |
| 100 to 500 | 87 | 98 | < 0.1 | COc1cccc([C@H]2C[C@H](c3ccnc(CNC(=O)c4ccc5c(c4)[C@](C)(C#N)COC5)c3)C2)c1 [Compound 74] |
| > 1000 | 43 | 85 | 0.1 to 0.5 | C[C@@]1(C#N)COCc2ccc(C(=O)NCc3cc4c(cn3)CCN(c3ccccn3)C4)cc21 [Compound 286] |
| 500 to 1000 | 55 | 90 | 0.1 to 0.5 | COc1cncc(-c2ccc3cnc(CNC(=O)c4ccc5c(c4)[C@](C)(C#N)COC5)cc3n2)c1 [Compound 482] |
| > 1000 | 34 | 86 | 0.1 to 0.5 | C[C@@]1(C#N)COCc2ccc(C(=O)NCc3cc(SCc4ccccc4)ccn3)cc21 [Compound 52] |
| 500 to 1000 | 72 | 92 | 0.1 to 0.5 | C[C@@]1(C#N)COCc2ccc(C(=O)NCc3cc4nc(N5CCN(C6CCC6)C5=O)ccc4cn3)cc21 [Compound 313] |
| 500 to 1000 | 65 | 97 | 0.1 to 0.5 | C[C@@]1(F)COCc2c(F)cc(C(=O)NCc3cc4nc(-c5ccccc5)ccc4cn3)cc21 [Compound 428] |
| 100 to 500 | 98 | 99 | < 0.1 | C[C@@]1(C#N)COCc2ccc(C(=O)NCc3cc4cc(-c5nccc(N6CCC6)n5)ccc4cn3)cc21 [Compound 365] |
| 500 to 1000 | 82 | 97 | 0.1 to 0.5 | [2H]C1([2H])OC[C@@](C)(F)c2cc(C(=O)NCc3cc4nc(-c5cncc(C6CC6)n5)ccc4cn3)cnc21 [Compound 211] |
| 500 to 1000 | 83 | 98 | < 0.1 | [2H]C1([2H])OCc2ncc(C(=O)NCc3cc4nc(-c5cncc(C6CC6)n5)ccc4cn3)cc2[C@]1(C)F [Compound 222] |
| > 1000 | 22 | 76 | > 1 | C[C@@]1(C#N)CCNc2ccc(C(=O)NCc3cc4nc(-c5ccccc5)ccc4cn3)cc21 [Compound 116] |
| > 1000 | 42 | 81 | 0.1 to 0.5 | C[C@@]1(C#N)COCc2ccc(C(=O)NCc3cc(N4CCC(O)(c5ccccc5)C4)ccn3)cc21 (stereo partly shown) [Compound 54] |
| 100 to 500 | 96 | 97 | < 0.1 | C[C@@]1(C#N)COCc2ccc(C(=O)NCc3cc4nc(-c5ccnc(N6CCC6)n5)ccc4cn3)cc21 [Compound 506] |
| 100 to 500 | 91 | 98 | < 0.1 | C[C@@]1(F)COCc2c(F)cc(C(=O)NCc3cc4nc(-c5cncc(N6CCC6)n5)ccc4cn3)cc21 [Compound 398] |
| > 1000 | 42 | 88 | 0.1 to 0.5 | Cc1c(-c2ccc3cnc(CNC(=O)c4ccc5c(c4)[C@](C)(C#N)COC5)cc3n2)cnn1C1COC1 [Compound 187] |

| IC50 (BRG-1) [nM] | Emax (BRG-1) [%] | BRM Max % Inhibition (BRM) [%] | IC50 (BRM) [µM] | Structure (SMILES) |
| --- | --- | --- | --- | --- |
| 500 to 1000 | 80 | 100 | < 0.1 | COCCNC(=O)c1cccc(-c2ccc3cnc(CNC(=O)c4ccc5c(c4)[C@](C)(C#N)COC5)cc3n2)c1 [Compound 468] |
| > 1000 | 31 | 70 | > 1 | COC(=O)N1CCC(C#Cc2ccnc(CNC(=O)c3ccc4c(c3)[C@](C)(C#N)COC4)c2)C1 (stereo partly shown) [Compound 22] |
| 500 to 1000 | 67 | 96 | 0.1 to 0.5 | C[C@@]1(C#N)COCc2ccc(C(=O)NCc3cc4c(cn3)CCN(c3ccnc(N5CCC5)n3)C4)cc21 [Compound 332] |
| < 100 | 95 | 104 | < 0.1 | C[C@@]1(C#N)COCc2ccc(C(=O)NCc3cc4cc(-c5cccc(N6CCC6)n5)ccc4cn3)cc21 [Compound 369] |
| 500 to 1000 | 63 | 97 | 0.1 to 0.5 | C[C@H](O)c1cccc(-c2ccc3cnc(CNC(=O)c4ccc5c(c4)[C@](C)(F)COC5)cc3n2)n1 [Compound 213] |
| 100 to 500 | 90 | 100 | < 0.1 | COC(=O)c1cccc(/C=C/c2ccnc(CNC(=O)c3ccc4c(c3)[C@](C)(C#N)COC4)c2)c1 [Compound 26] |
| 500 to 1000 | 69 | 93 | 0.1 to 0.5 | C[C@@]1(C#N)COCc2ccc(C(=O)NCc3ncc4ccc(-c5ccccc5)nc4c3F)cc21 [Compound 167] |
| < 100 | 97 | 104 | < 0.1 | C[C@@]1(C#N)COCc2ccc(C(=O)NCc3cc4cc(-c5cncc(N6CCC6)n5)ccc4cn3)cc21 [Compound 371] |
| 500 to 1000 | 80 | 95 | 0.1 to 0.5 | C[C@@]1(C#N)COCc2ccc(C(=O)NCc3cc4nc(-c5ccc(N6CCC6)nc5)ccc4cn3)cc21 [Compound 456] |
| < 100 | 96 | 99 | < 0.1 | CN(C)c1nccc(-c2ccc3cnc(CNC(=O)c4ccc5c(c4)[C@](C)(C#N)COC5)cc3n2)n1 [Compound 424] |
| > 1000 | 64 | 95 | 0.1 to 0.5 | C[C@@]1(C#N)COCc2ccc(C(=O)NCc3cc4c(cn3)CCN(c3ccccc3)C4)cc21 [Compound 92] |
| > 1000 | 28 | 84 | 0.1 to 0.5 | C[C@@]1(C#N)COCc2ccc(C(=O)NCc3cc4nc(-c5ccncc5)sc4cn3)cc21 [Compound 438] |
| 100 to 500 | 94 | 99 | < 0.1 | CN(C)c1cccc(-c2ccc3cnc(CNC(=O)c4cnc5c(c4)[C@@](F)(C(F)F)COC5)cc3n2)n1 [Compound 227] |
| 500 to 1000 | 91 | 99 | < 0.1 | COc1ccc(-c2ccc3cnc(CNC(=O)c4ccc5c(c4)[C@](C)(C#N)COC5)cc3n2)cc1 [Compound 108] |
| 500 to 1000 | 68 | 90 | 0.1 to 0.5 | COc1c(F)cc(F)cc1-c1ccc2cnc(CNC(=O)c3ccc4c(c3)[C@](C)(C#N)COC4)cc2n1 [Compound 515] |
| 500 to 1000 | 53 | 94 | 0.1 to 0.5 | COc1nn(C)cc1-c1cnc2cnc(CNC(=O)c3ccc4c(c3)[C@](C)(F)COC4)cc2n1 [Compound 161] |
| 100 to 500 | 89 | 99 | < 0.1 | O=C(NCc1cc2nc(-c3cncc(N4CCC4)n3)ccc2cn1)c1cc(F)c2c(c1)[C@@](F)(C(F)F)COC2 [Compound 352] |
| > 1000 | 41 | 90 | 0.1 to 0.5 | Cn1cc(-c2nc3cc(CNC(=O)c4ccc5c(c4)[C@](C)(C#N)COC5)ncc3s2)cn1 [Compound 289] |
| 500 to 1000 | 72 | 99 | < 0.1 | C[C@@]1(C#N)COCc2ccc(C(=O)NCc3cc4nc(-c5ccnc(N6CCC6)n5)sc4cn3)cc21 [Compound 348] |
| 500 to 1000 | 83 | 98 | < 0.1 | [2H]C1([2H])OC([2H])([2H])[C@@](C)(F)c2cc(C(=O)NCc3cc4nc(-c5cncc(C6CC6)n5)ccc4cn3)cnc21 [Compound 176] |
| 500 to 1000 | 60 | 94 | 0.1 to 0.5 | COc1nn(C(F)F)cc1-c1ccc2cnc(CNC(=O)c3cnc4c(c3)[C@](C)(F)COC4)cc2n1 [Compound 192] |
